Here are results for one compound from patent publication US20190322643A1 (Georgia State University Research Foundation, Inc., priority 2016, published 2019).

In test [1] the target is T1, Mouse histone methyltransferase G9a (969-1263) (Mus musculus, UniProt Q9Z148).
T1 construct: The 6His-sumo mG9a (969-1263) protein was purified using the following procedure; 6His-sumo (cleaved yes); made in house; host or cells: Escherichia coli BL21 (DE3)
T1 sequence (Q9Z148 969-1263): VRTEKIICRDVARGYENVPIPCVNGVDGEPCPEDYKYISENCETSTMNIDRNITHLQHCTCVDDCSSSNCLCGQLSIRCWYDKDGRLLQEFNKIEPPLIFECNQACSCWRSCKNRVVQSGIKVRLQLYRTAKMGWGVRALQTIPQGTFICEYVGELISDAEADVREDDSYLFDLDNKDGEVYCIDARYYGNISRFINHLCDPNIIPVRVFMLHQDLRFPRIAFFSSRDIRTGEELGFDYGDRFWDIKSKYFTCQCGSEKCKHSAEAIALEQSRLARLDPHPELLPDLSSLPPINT
The experiment in a line: MALDI-TOF methylation study of G9a inhibition. It is filed as biochemical. Particulars: inhibitors at 5 μM concentration for 30 min.

Test [2] relates to MCF-7. The experiment in a line: Cytotoxicity / anti-proliferation assay (CCK-8), MCF-7. The test is classed as cell-based. Particulars: Homo sapiens, MCF7; 72 h, CCK-8 kit. As to the method:
Then the cells were exposed to the different inhibitors with various concentrations for 72 h. […] EC50s were calculated using GraphPad Prizm statistical package with sigmoidal variable slope dose response curve fit.
Cell anti-proliferation assays were performed to determine the toxicity of these inhibitors. […] These compounds were further evaluated against the control cell line HEK293 to test their toxicity with a non-cancerous cell line.

A word on the inhibition: it is how much of the control response was suppressed. A higher inhibition goes with strong suppression. As a reminder, the EC50 is the concentration needed to bring the measured effect to its halfway point. Read a low EC50 as higher potency in that assay. Regarding `CN1CCCN(c2nc(NC3CCN(Cc4ccccc4)CC3)c3ccc(OCCCCCCC(=O)NO)cc3n2)CC1` [Compound 30], testing at 5 µM in test [1] gave an inhibition of 17.9 ± 5.51%. Further, the EC50 in test [2] is > 100 µM.
